Laboratory results taken from publication PMC4476799, “Englerin A Agonizes the TRPC4/C5 Cation Channels to Inhibit Tumor Cell Line Proliferation” (PLoS ONE, 2015).
Where two headings read alike, the source gives them in different places.

Test system: cancer cell lines from the cancer cell line encyclopedia (CCLE)
Assay: Cell line profiling (CLiP) proliferation experiment
Format: cell-based
Settings: for IC50: read-out: Crossing Point; for EC50: read-out: Inflection Point
Description: Compound profiling experiment and data analysis was performed as previously described. Data was imported and plotted using the Tibco Spotfire DXP application. Lines were categorized as sensitive, intermediate and refractory as follows: Amax<-40 & Inflection Point <2 ~ Sensitive, Amax>-20 & Inflection Point >10 ~ Refractory, all else were called Intermediate. Cancer Cell line HG-U133 Plus 2 data was processed and normalized as described. […] Five sets of refractory cell lines were generated from the pool of refractory cell lines trying to match the lineage composition of the set of sensitive cell lines. The limma package was used as previously described to perform the statistical comparison.

[1] = HT115, cell line HT115, large_intestine
[2] = Homo sapiens, 8-MG-BA, cell line 8-MG-BA, central_nervous_system, astrocytoma_Grade_IV
[3] = Homo sapiens, 769-P, cell line 769-P, kidney, clear_cell_renal_cell_carcinoma
[4] = Homo sapiens, A101D, A101D cells
[5] = Homo sapiens, A101D, cell line A101D, skin, NS
[6] = Homo sapiens, A204, cell line A-204, soft_tissue, NS
[7] = Homo sapiens, A2780, cell line A2780, ovary, adenocarcinoma
[8] = Homo sapiens, ABC-1, ABC-1 cells
[9] = Homo sapiens, ABC-1, cell line ABC-1, lung, non_small_cell_carcinoma
[10] = Homo sapiens, AMO1, cell line AMO-1, haematopoietic_and_lymphoid_tissue, plasma_cell_myeloma
[11] = Homo sapiens, BFTC-909, cell line BFTC-909, kidney, NS
[12] = Homo sapiens, BL-41, cell line BL-41, haematopoietic_and_lymphoid_tissue, Burkitt_lymphoma
[13] = Homo sapiens, BV-173, cell line BV-173, haematopoietic_and_lymphoid_tissue, blast_phase_chronic_myeloid_leukaemia
[14] = Homo sapiens, CAKI-1, cell line Caki-1, kidney, clear_cell_renal_cell_carcinoma
[15] = Homo sapiens, CAL-54, CAL-54, kidney, renal_cell_carcinoma
[16] = Homo sapiens, CAL-54, CAL-54 cells
[17] = Homo sapiens, CAL-85-1, CAL-85-1, breast, NS
[18] = Homo sapiens, CAL-85-1, CAL-85-1 cells
[19] = Homo sapiens, CAL-120, cell line CAL-120, breast, NS
[20] = Homo sapiens, CAPAN-1, Capan-1, pancreas, ductal_carcinoma
[21] = Homo sapiens, CFPAC-1, CFPAC-1, pancreas, ductal_carcinoma

CC(C)[C@@]12C[C@@H](O)[C@@](C)(O1)[C@@H]1CC[C@@H](C)[C@H]1[C@@H]2OC(=O)/C=C/c1ccccc1 [Englerin B]
IC50 (HEC-50B, cell line HEC-50B): > 30 µM
IC50 (HEC-251, cell line HEC-251, endometrium): > 30 µM
IC50 (HEC-251, cell line HEC-251): > 30 µM
IC50 (HEY A8, cell line Hey-A8, ovary): > 30 µM
IC50 (HEY A8, cell line Hey-A8): > 30 µM
IC50 [1]: 19.2 µM
EC50 [1]: 12.3 µM
IC50 [2]: 26.5 µM
EC50 [2]: 15.8 µM
IC50 (Homo sapiens, 22Rv1, cell line 22Rv1, prostate, NS): 27.2 µM
IC50 (Homo sapiens, 769-P, 769-P (kidney)): > 30 µM
IC50 [3]: > 30 µM
EC50 [3]: 20.5 µM
IC50 (Homo sapiens, 786-0, cell line 786-O, kidney, clear_cell_renal_cell_carcinoma): > 30 µM
IC50 (Homo sapiens, 786-0, cell line 786-O): > 30 µM
IC50 (Homo sapiens, 1321-N1, cell line 1321N1 (central_nervous_system, astrocytoma)): > 30 µM
IC50 (Homo sapiens, 1321-N1, cell line 1321N1, central_nervous_system, astrocytoma): > 30 µM
IC50 (Homo sapiens, 8305C, 8305C (thyroid)): > 30 µM
IC50 (Homo sapiens, 8305C, cell line 8305C, thyroid, anaplastic_carcinoma): > 30 µM
IC50 [4]: > 30 µM
EC50 [4]: 19.2 µM
IC50 [5]: > 30 µM
EC50 [5]: 19.2 µM
IC50 (Homo sapiens, A 172, cell line A172, central_nervous_system, astrocytoma_Grade_IV): > 30 µM
IC50 (Homo sapiens, A 172, cell line A172): > 30 µM
IC50 (Homo sapiens, A204, cell line A-204): > 30 µM
IC50 [6]: > 30 µM
EC50 [6]: 17.4 µM
IC50 (Homo sapiens, A253, cell line A-253, salivary_gland, mucoepidermoid_carcinoma): 14.7 µM
IC50 (Homo sapiens, A498, cell line A-498, kidney, renal_cell_carcinoma): 12.5 µM
IC50 (Homo sapiens, A549, cell line A549, lung, adenocarcinoma): 23.2 µM
IC50 (Homo sapiens, A673, A-673 cells): > 30 µM
IC50 (Homo sapiens, A673, cell line A-673, bone, NS): > 30 µM
IC50 (Homo sapiens, A2058, cell line A2058, skin, NS): 18.5 µM
EC50 (Homo sapiens, A2780, A2780 cells): 12.1 µM
IC50 [7]: 14.9 µM
EC50 [7]: 12.1 µM
IC50 (Homo sapiens, A-375, A-375 cells): > 30 µM
IC50 (Homo sapiens, A-375, cell line A-375, skin, NS): > 30 µM
IC50 [8]: > 30 µM
EC50 [8]: 23.7 µM
IC50 [9]: > 30 µM
EC50 [9]: 23.7 µM
IC50 (Homo sapiens, ACHN, ACHN cells): > 30 µM
IC50 (Homo sapiens, ACHN, cell line ACHN, kidney, renal_cell_carcinoma): > 30 µM
EC50 (Homo sapiens, AMO1, AMO-1 cells): 12.2 µM
IC50 [10]: 13.2 µM
EC50 [10]: 12.2 µM
IC50 (Homo sapiens, AN3-CA, cell line AN3 CA, endometrium, adenocarcinoma): 21.1 µM
IC50 (Homo sapiens, AN3-CA, cell line AN3 CA): 21.1 µM
IC50 (Homo sapiens, AU565, cell line AU565, breast, NS): 20.5 µM
IC50 [11]: > 30 µM
EC50 [11]: 0.1 µM
IC50 (Homo sapiens, BFTC-909, cell line BFTC-909): > 30 µM
EC50 (Homo sapiens, BL-41, BL-41 cells): 16.6 µM
IC50 [12]: 17.2 µM
EC50 [12]: 16.6 µM
IC50 (Homo sapiens, BT-20, BT-20 cells): > 30 µM
IC50 (Homo sapiens, BT-20, cell line BT-20, breast, ductal_carcinoma): > 30 µM
IC50 (Homo sapiens, BT-549, cell line BT-549, breast, ductal_carcinoma): 19.5 µM
EC50 (Homo sapiens, BV-173, BV-173 cells): 12.5 µM
IC50 [13]: 12.8 µM
EC50 [13]: 12.5 µM
IC50 (Homo sapiens, BXPC-3, cell line BxPC-3, pancreas, ductal_carcinoma): 26.1 µM
IC50 (Homo sapiens, C32, C32 cells): > 30 µM
IC50 (Homo sapiens, CAKI-1, Caki-1 (kidney)): > 30 µM
IC50 [14]: > 30 µM
EC50 [14]: 13.3 µM
IC50 (Homo sapiens, CAKI-2, Caki-2 (kidney)): > 30 µM
IC50 (Homo sapiens, CAKI-2, cell line Caki-2, kidney, clear_cell_renal_cell_carcinoma): > 30 µM
IC50 (Homo sapiens, CAL-51, CAL-51 cells): > 30 µM
IC50 (Homo sapiens, CAL-51, cell line CAL-51, breast, NS): > 30 µM
IC50 [15]: > 30 µM
EC50 [15]: 15.7 µM
IC50 [16]: > 30 µM
EC50 [16]: 15.7 µM
IC50 [17]: > 30 µM
EC50 [17]: 27.8 µM
IC50 [18]: > 30 µM
EC50 [18]: 27.8 µM
EC50 (Homo sapiens, CAL-120, CAL-120 cells): 11.6 µM
IC50 [19]: 22.3 µM
EC50 [19]: 11.6 µM
IC50 (Homo sapiens, CAMA-1, CAMA-1 (breast)): > 30 µM
IC50 (Homo sapiens, CAMA-1, CAMA-1, breast, NS): > 30 µM
IC50 (Homo sapiens, CAPAN-1, Capan-1 (pancreas)): > 30 µM
IC50 [20]: > 30 µM
EC50 [20]: 3.35 µM
IC50 (Homo sapiens, CCRF-CEM, CCRF-CEM cells): > 30 µM
IC50 (Homo sapiens, CCRF-CEM, haematopoietic_and_lymphoid_tissue, acute_lymphoblastic_T_cell_leukaemia): > 30 µM
IC50 [21]: 29.7 µM
EC50 [21]: 12.7 µM
